The target in assay [1] is T1, Alkaline phosphatase, tissue-nonspecific isozyme (Homo sapiens, UniProt P05186).
T1 sequence (P05186 whole entry): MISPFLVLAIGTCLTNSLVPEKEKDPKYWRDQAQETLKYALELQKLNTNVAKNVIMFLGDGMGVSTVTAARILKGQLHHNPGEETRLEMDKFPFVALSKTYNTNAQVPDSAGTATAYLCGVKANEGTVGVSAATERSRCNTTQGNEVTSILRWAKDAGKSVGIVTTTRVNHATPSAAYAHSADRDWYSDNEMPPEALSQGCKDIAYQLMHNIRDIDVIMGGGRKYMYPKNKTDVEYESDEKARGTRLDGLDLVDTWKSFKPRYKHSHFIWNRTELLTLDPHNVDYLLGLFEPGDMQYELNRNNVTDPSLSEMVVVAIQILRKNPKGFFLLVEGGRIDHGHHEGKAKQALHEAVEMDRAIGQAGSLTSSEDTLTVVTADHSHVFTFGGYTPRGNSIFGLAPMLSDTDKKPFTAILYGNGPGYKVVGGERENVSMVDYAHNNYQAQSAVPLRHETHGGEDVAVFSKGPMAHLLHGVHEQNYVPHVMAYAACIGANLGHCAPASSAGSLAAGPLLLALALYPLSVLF
Description: potency against alkaline phosphatase TNAP – biochemical, luminescent, dose response, SAR follow-up (AID 1056).

The target in assay [2] is T2, Rac GTPase-activating protein 1 (Homo sapiens, UniProt Q9H0H5).
T2 sequence (Q9H0H5 whole entry): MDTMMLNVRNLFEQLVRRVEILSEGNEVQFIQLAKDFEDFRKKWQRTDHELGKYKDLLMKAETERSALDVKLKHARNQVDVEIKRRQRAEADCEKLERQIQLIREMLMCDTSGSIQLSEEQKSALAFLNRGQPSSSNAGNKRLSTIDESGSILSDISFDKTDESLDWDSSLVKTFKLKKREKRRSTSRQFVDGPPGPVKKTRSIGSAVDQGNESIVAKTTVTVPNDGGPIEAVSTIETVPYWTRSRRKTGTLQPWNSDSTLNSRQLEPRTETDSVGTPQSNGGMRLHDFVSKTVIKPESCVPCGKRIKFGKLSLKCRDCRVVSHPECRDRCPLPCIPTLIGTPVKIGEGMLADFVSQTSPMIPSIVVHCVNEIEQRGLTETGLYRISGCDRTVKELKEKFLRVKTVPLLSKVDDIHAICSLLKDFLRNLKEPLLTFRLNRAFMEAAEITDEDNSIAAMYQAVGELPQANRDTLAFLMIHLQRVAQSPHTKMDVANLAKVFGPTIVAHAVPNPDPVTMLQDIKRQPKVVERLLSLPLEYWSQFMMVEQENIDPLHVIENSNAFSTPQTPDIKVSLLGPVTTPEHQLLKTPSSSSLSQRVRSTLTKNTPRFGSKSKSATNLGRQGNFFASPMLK
Put plainly: blockers of MgcRacGAP-driven Rac1 GTP hydrolysis – biochemical, ADP Hunter fluorescence, primary and confirmatory, confirmation (AID 624330). The class given is functional.

Calls of active or inactive are those of the source.

The term IC50 denotes the concentration that inhibits the measured activity by half.

Regarding `Cc1cc(C)nc(SCC(=O)c2ccc(O)c(O)c2)n1`, the IC50 in assay [1] is 5.76 µM (active); in assay [2], 30.6 µM (active).

The record behind these values is ChEMBL document CHEMBL1201862, “PubChem BioAssay data set” (2004).
